Data reported in PMC4757451 (Biochemistry, 2015).

Assays:
CYP3A4 [1] = target: T1, CYP3A4 (Homo sapiens, UniProt P08684, S18F); assay: Product formation; details: for Product formation rate after second substrate binding: intermediate with two molecules bound ([20]/[02]); for CBZ Product Rate / PGS Product Rate: mixed substrate global fit
CYP3A4 [2] = target: T1, CYP3A4; assay: Steady-state NADPH oxidation by CYP3A4 Nanodiscs with CPR; assay type: biochemical

SMILES | Product formation rate with only one substrate molecule bound (CYP3A4 [1]; first binding intermediate, fitted parameters, in words) | Product formation rate after third binding event (CYP3A4 [1]; intermediate with three molecules bound ([03]), pure substrate) | Product formation rate after second substrate binding (CYP3A4 [1]; pure substrate) | CBZ Product Rate (CYP3A4 [1]; mixed intermediate [11]) | CBZ product formation rate (CYP3A4 [1]; mixed intermediate [12]) | CBZ Product Rate (CYP3A4 [1]; mixed intermediate [12]) | CBZ product formation rate (CYP3A4 [1]; mixed intermediate [21]) | CBZ Product Rate (CYP3A4 [1]; mixed intermediate [21]) | Maximum rate of NADPH consumption, pure substrate (CYP3A4 [2]; at 30 µM PGS, at 200 µM CBZ) | NADPH consumption rate (CYP3A4 [2]; intermediate [20], pure PGS) | Rate of NADPH consumption at higher PGS concentrations (CYP3A4 [2]; pure PGS, above 30 µM, decreases down to this value) | PGS product formation rate in CBZ/PGS mixture at high concentration (CYP3A4 [1]; CBZ/PGS 12:1 mixture, 60 µM and higher PGS) | Maximum PGS product formation rate in CBZ/PGS mixture (CYP3A4 [1]; CBZ/PGS 12:1 mixture, reached at 18–20 µM PGS) | Factor by which PGS hydroxylation in [11] is slower than in [20] (CYP3A4 [1]; [11] versus [20]) | Hill coefficient nH (CYP3A4 [1]; fitting with the Hill equation, pure PGS) | Rate of PGS hydroxylation (CYP3A4 [1]; mixed intermediate [11]) | PGS Product Rate (CYP3A4 [1]; mixed intermediate [11]) | PGS Product Rate (CYP3A4 [1]; mixed intermediate [12]) | PGS Product Rate (CYP3A4 [1]; mixed intermediate [21])
NC(=O)N1c2ccccc2C=Cc2ccccc21 [CBZ, carbamazepine] | negligible | 3 min⁻¹ | 1.7 min⁻¹ | 0 (0.01) nmol/nmol/min | 4.5 min⁻¹ | 4.5 (2.0 – 6.0) nmol/nmol/min | 11 min⁻¹ | 11 (9.8 – 12.2) nmol/nmol/min |  |  |  |  |  |  |  |  |  |  | 
CC(=O)[C@H]1CC[C@H]2[C@@H]3CCC4=CC(=O)CC[C@]4(C)[C@H]3CC[C@]12C [PGS, progesterone] |  |  | 14.7 min⁻¹ |  |  |  |  |  | 240 min⁻¹ | 388 min⁻¹ | 160 min⁻¹ | 4 min⁻¹ | 5 min⁻¹ | 4 | 1.7 | 4 min⁻¹ | 4 (3.7 – 4.2) nmol/nmol/min | 0 (0.01) nmol/nmol/min | 0 (0.02) nmol/nmol/min
